By pIC50 is commonly meant the negative decadic logarithm of the IC50, by convention in mol/L. The inhibition is the percentage by which the read-out fell short of the control.

Series [1] concerns the target T1, Cytochrome P450 2D6 (Homo sapiens, UniProt P10635). Briefly: Inhibition of human recombinant CYP2D6. Type of series: ADME.
The target of series [2] is T2, Cytochrome P450 2C9 (Homo sapiens, UniProt P11712). Briefly: Inhibition of human recombinant CYP2C9 in presence of reduced glutathione. The format is ADME. The note with it: recombinant enzyme.
Series [3] deals with T3, Cytochrome P450 2B6 (Homo sapiens, UniProt P20813).
T3 sequence (P20813 whole entry): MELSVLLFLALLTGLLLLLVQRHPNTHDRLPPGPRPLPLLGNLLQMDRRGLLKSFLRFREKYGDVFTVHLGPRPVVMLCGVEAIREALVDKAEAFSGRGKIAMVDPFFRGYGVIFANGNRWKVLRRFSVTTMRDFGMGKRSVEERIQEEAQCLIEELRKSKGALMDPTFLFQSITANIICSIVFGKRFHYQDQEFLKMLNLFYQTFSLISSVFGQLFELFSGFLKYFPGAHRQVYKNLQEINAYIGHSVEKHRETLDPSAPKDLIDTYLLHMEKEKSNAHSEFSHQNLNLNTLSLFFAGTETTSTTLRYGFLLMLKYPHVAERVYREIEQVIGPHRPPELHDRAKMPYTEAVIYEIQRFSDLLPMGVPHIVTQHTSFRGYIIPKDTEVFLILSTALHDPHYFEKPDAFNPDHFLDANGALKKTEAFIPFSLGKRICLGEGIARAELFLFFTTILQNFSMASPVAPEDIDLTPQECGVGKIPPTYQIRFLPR
Description: Inhibition of human recombinant CYP2B6 in presence of reduced glutathione. Type of series: ADME. The conditions noted are these: recombinant enzyme.

Series [4] has as its target T2, Cytochrome P450 2C9. Briefly: Inhibition of human recombinant CYP2C9. Type of series: ADME.
For series [5], the target named is T4, Cytochrome P450 3A4 (Homo sapiens, UniProt P08684). Briefly: Inhibition of human recombinant CYP3A4 in presence of reduced glutathione. Type of series: ADME. The conditions noted are these: recombinant enzyme.
For series [6], the target named is T1, Cytochrome P450 2D6. Description: Inhibition of human recombinant CYP2D6 in presence of reduced glutathione. Type of series: ADME. The note with it: recombinant enzyme.
The target in another series is T5, Cytochrome P450 1A2 (Homo sapiens, UniProt P05177).
T5 sequence (P05177 whole entry): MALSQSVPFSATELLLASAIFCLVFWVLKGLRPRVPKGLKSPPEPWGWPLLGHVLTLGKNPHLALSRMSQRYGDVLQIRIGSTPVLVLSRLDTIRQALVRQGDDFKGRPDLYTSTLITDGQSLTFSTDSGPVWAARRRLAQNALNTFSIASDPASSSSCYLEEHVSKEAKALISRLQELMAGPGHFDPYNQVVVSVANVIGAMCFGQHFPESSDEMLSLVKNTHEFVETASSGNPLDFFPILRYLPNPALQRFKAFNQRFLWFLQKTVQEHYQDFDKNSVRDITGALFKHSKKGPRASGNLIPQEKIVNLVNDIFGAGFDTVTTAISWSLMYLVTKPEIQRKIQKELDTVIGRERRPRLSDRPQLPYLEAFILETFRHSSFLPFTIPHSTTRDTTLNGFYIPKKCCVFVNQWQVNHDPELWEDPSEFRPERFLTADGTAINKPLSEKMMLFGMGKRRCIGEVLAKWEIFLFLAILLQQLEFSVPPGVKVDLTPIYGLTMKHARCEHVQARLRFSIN
Briefly: Inhibition of human recombinant CYP1A2. The note with it: for log(1/IC50): human.

The target in series [7] is T4, Cytochrome P450 3A4. Description: Inhibition of human recombinant CYP3A4. The format is ADME.
For a further series, the target named is T6, CYP2B6 (Homo sapiens, UniProt P20813).
T6 sequence (P20813 whole entry): T3 sequence (P20813 whole entry)
Briefly: (§1) Inhibition of human recombinant CYP2B6 at 100 uM. Type of series: ADME.

For series [8], the target named is T3, Cytochrome P450 2B6. Description: Inhibition of human recombinant CYP2B6. Type of series: ADME.
In series [9] the target is T3, Cytochrome P450 2B6. The series is described as §1. Type of series: ADME. The note with it: recombinant enzyme.
The target in series [10] is T1, Cytochrome P450 2D6. Description: Inhibition of human recombinant CYP2D6 at 100 uM. Type of series: ADME. The note with it: recombinant enzyme.
Series [11] concerns the target T4, Cytochrome P450 3A4. Briefly: Inhibition of human recombinant CYP3A4 at 100 uM. The format is ADME. The conditions noted are these: recombinant enzyme.

pIC50: −log10 of the molar value.

T4 sequence (P08684 whole entry): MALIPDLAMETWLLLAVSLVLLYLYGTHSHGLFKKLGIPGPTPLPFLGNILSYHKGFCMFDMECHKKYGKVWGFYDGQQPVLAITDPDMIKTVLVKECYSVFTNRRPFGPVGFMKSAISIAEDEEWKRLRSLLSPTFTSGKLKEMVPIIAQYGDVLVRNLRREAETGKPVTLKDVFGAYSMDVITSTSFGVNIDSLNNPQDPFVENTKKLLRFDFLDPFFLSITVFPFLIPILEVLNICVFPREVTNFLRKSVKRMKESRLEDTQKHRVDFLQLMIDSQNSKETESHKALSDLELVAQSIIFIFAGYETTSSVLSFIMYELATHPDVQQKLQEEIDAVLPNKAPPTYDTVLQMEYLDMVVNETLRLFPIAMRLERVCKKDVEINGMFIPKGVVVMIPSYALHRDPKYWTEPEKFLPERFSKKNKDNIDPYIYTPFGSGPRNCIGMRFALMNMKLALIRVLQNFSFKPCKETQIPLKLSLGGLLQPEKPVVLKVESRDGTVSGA
T2 sequence (P11712 whole entry): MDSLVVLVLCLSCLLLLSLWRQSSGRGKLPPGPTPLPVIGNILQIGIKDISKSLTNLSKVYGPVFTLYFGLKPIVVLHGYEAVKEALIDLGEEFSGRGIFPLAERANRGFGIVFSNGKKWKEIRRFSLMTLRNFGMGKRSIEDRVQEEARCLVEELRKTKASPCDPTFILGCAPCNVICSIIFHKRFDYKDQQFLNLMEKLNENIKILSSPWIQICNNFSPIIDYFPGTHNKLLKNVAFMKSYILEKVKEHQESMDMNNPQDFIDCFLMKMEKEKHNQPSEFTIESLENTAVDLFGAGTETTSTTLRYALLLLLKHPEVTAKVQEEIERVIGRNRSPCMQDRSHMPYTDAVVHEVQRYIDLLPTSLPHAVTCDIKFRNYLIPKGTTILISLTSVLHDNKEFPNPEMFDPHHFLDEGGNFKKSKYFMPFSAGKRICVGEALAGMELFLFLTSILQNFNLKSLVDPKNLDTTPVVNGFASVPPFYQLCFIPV
T1 sequence (P10635 whole entry): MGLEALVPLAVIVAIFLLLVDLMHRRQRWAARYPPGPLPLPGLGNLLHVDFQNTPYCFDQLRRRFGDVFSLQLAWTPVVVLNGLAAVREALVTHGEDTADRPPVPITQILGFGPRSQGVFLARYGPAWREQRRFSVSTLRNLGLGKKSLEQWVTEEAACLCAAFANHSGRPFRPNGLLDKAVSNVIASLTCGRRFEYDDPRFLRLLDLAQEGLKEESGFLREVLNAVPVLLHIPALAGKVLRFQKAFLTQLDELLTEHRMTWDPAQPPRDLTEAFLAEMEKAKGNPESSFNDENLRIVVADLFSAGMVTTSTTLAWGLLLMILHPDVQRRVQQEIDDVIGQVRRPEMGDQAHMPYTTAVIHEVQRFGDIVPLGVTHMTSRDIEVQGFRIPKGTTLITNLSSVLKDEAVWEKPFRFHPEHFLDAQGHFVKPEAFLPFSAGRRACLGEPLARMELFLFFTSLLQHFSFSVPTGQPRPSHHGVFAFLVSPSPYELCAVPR

Take `CC(C)(C)c1cc(/C=C2\CC/C(=C\c3cc(C(C)(C)C)c(O)c(C(C)(C)C)c3)C2=O)cc(C(C)(C)C)c1O`: the figures for the pIC50 at Cytochrome P450 2D6 [1], at Cytochrome P450 2C9 [4] and at Cytochrome P450 1A2 were 3.93, 4.26 and 4.37, respectively. Further, the Activity result at Cytochrome P450 2C9 [2], at Cytochrome P450 2B6 [3], at Cytochrome P450 3A4 [5] and at Cytochrome P450 2D6 [6] was “Not Active” each time. Also, the “log(1/IC50)” value at Cytochrome P450 1A2 (recombinant CYP1A2) is 1.369.

On to `COc1cc(/C=C2\CC/C(=C\c3ccc(O)c(OC)c3)C2=O)ccc1O`, for which the Activity entry at Cytochrome P450 2C9 [2], at Cytochrome P450 2B6 [3], at Cytochrome P450 3A4 [5] and at Cytochrome P450 2D6 [6] was “Not Active” each time. In addition, the values for the pIC50 on Cytochrome P450 3A4 [7], on Cytochrome P450 2C9 [4] and at Cytochrome P450 1A2 were 4.19, 5.55 and 4.41, respectively. The “log(1/IC50)” value at Cytochrome P450 1A2 (recombinant CYP1A2) was determined as 1.41.

As to `COc1cc(/C=C2\CC/C(=C\c3cc(OC)c(O)c(OC)c3)C2=O)cc(OC)c1O`, the Activity entry at Cytochrome P450 2C9 [2], at Cytochrome P450 2B6 [3], on Cytochrome P450 3A4 [5] and on Cytochrome P450 2D6 [6] was “Not Active” throughout. In addition, the pIC50 on Cytochrome P450 3A4 [7] was 4.42; on Cytochrome P450 2B6 [8], 4.15. For the same molecule, at CYP2B6, the inhibition at 100 µM is > 20%.

On to `CCc1cc(/C=C2\CC/C(=C\c3cc(CC)c(O)c(CC)c3)C2=O)cc(CC)c1O`, for which the Activity result at Cytochrome P450 2C9 [2], on Cytochrome P450 2B6 [3], at Cytochrome P450 3A4 [5] and at Cytochrome P450 2D6 [6] was “Not Active” each time. Besides, the results for the pIC50 at Cytochrome P450 3A4 [7], on Cytochrome P450 2C9 [4] and on Cytochrome P450 1A2 were 4.13, 4.42 and 4.44, respectively. Further, the “log(1/IC50)” value on Cytochrome P450 1A2 was 1.435.

For `COc1cc(/C=C/C(=O)CC(=O)/C=C/c2ccc(O)c(OC)c2)ccc1O` [CURCUMIN], the pIC50 was 4.30 at Cytochrome P450 2D6 [1], 4.79 at Cytochrome P450 3A4 [7], 4.61 on Cytochrome P450 2B6 [8] and 4.40 at Cytochrome P450 1A2.

Regarding `O=C1/C(=C/c2ccc(O)cc2)CC/C1=C\c1ccc(O)cc1`, the Activity entry at Cytochrome P450 2C9 [2], on Cytochrome P450 2B6 [3], at Cytochrome P450 3A4 [5] and on Cytochrome P450 2D6 [6] was “Not Active” throughout. Besides, the pIC50 at Cytochrome P450 3A4 [7] is 5.29; on Cytochrome P450 2C9 [4], 5.00; at Cytochrome P450 1A2, 4.34. In addition, the “log(1/IC50)” value on Cytochrome P450 1A2 (recombinant CYP1A2) came out at 1.341.

As to `O=C(/C=C/c1ccc(O)cc1)/C=C/c1ccc(O)cc1`, the pIC50 on Cytochrome P450 2D6 [1] was 5.70; on Cytochrome P450 2C9 [4] it was 5.74. Also, the Activity result on Cytochrome P450 2C9 [2], at Cytochrome P450 2B6 [3], at Cytochrome P450 3A4 [5] and at Cytochrome P450 2D6 [6] was “Not Active” each time.

`COc1cc(/C=C/C(=O)/C=C/c2ccc(O)c(OC)c2)ccc1O`: the negative logarithm of the IC50 (pIC50) on Cytochrome P450 2D6 [1] was 6.22; at Cytochrome P450 1A2, 4.38. In addition, the Activity entry on Cytochrome P450 2C9 [2], at Cytochrome P450 2B6 [3], on Cytochrome P450 3A4 [5] and on Cytochrome P450 2D6 [6] was “Not Active” throughout. The “log(1/IC50)” value at Cytochrome P450 1A2 stood at 1.382.

Consider `O=C1/C(=C/c2ccc(O)cc2)CCC/C1=C\c1ccc(O)cc1`, for which the Activity result on Cytochrome P450 2C9 [2], on Cytochrome P450 2B6 [3], at Cytochrome P450 2B6 [9], on Cytochrome P450 2D6 [10], at Cytochrome P450 3A4 [5] and on Cytochrome P450 2D6 [6] was “Not Active” each time. The Activity result on Cytochrome P450 3A4 [11] was “Not Active”. The pIC50 on Cytochrome P450 2C9 [4] is 6.00.

Regarding `O=C(/C=C/c1ccccc1)/C=C/c1ccccc1`, the pIC50 on Cytochrome P450 2D6 [1] was 4.16; at Cytochrome P450 2C9 [4], 4.17. In addition, the Activity entry on Cytochrome P450 2C9 [2], on Cytochrome P450 2B6 [3], at Cytochrome P450 3A4 [5] and on Cytochrome P450 2D6 [6] was “Not Active” in each case.

For `COc1cc(/C=C/C(=O)/C=C/c2cc(OC)c(O)c(OC)c2)cc(OC)c1O`, the pIC50 is 4.08 on Cytochrome P450 2D6 [1]; 4.88 on Cytochrome P450 3A4 [7]; 4.23 at Cytochrome P450 2C9 [4]; 4.61 at Cytochrome P450 2B6 [8]; 4.12 on Cytochrome P450 1A2. In addition, the Activity result on Cytochrome P450 2C9 [2], on Cytochrome P450 2B6 [3], at Cytochrome P450 3A4 [5] and at Cytochrome P450 2D6 [6] was “Not Active” in each case. For the same molecule, the inhibition at 100 µM at CYP2B6 was > 20%. In addition, the “log(1/IC50)” value at Cytochrome P450 1A2 (recombinant enzyme) is reported as 1.124 mM.

As to `Cc1cc(/C=C/C(=O)/C=C/c2cc(C)c(O)c(C)c2)cc(C)c1O`, the pIC50 on Cytochrome P450 2D6 [1] is 4.88; at Cytochrome P450 3A4 [7] it was 4.39; at Cytochrome P450 2C9 [4] it was 4.20; on Cytochrome P450 2B6 [8] it was 4.35; at Cytochrome P450 1A2, 4.52. Also, the Activity entry at Cytochrome P450 2C9 [2], on Cytochrome P450 2B6 [3], at Cytochrome P450 3A4 [5] and on Cytochrome P450 2D6 [6] was “Not Active” each time. Also, at CYP2B6, the inhibition at 100 µM was > 20%. Moreover, the “log(1/IC50)” value on Cytochrome P450 1A2 (recombinant CYP1A2) amounted to 1.517.

These data come from ChEMBL document CHEMBL1141678 (Eur J Med Chem, 2008).
